Measured values published in patent publication US3985742A, “Process for preparing 3-hydroxymethyl cephalosporins” (priority 1975, dated 1976).
Entries after “also recorded” stand apart in the source; their conditions may differ. Structures can show the parent of a compound that is named as a salt. Where two headings read alike, the source gives them in different places.

Experiments:
[1] = system: Sarcina lutea; experiment: disc-plate agar diffusion, antibacterial spectrum; assay type: cell-based; conditions: Micrococcus luteus; 192 μg/ml; 25 °C; 7 mm = no zone; read-out: Inhibition Zone Diameter
[2] = system: Escherichia coli, Pleocidin-resistant; experiment: cross-resistance, disc-plate agar diffusion; assay type: cell-based; conditions: read-out: Inhibition Zone Diameter
[3] = system: Staphylococcus aureus (Streptomycin-Streptothricin-resistant); experiment: disc-plate agar diffusion, antibacterial spectrum; assay type: cell-based; conditions: read-out: Inhibition Zone Diameter
[4] = system: Vibrio percolans; experiment: disc-plate agar diffusion, antibacterial spectrum; assay type: cell-based; conditions: Comamonas terrigena; 192 μg/ml; 27 °C; 7 mm = no zone; read-out: Inhibition Zone Diameter
[5] = system: Escherichia coli, Streptomycin-resistant; experiment: cross-resistance, disc-plate agar diffusion; assay type: cell-based; conditions: read-out: Inhibition Zone Diameter
[6] = system: Escherichia coli, Chloramphenicol-resistant; experiment: cross-resistance, disc-plate agar diffusion; assay type: cell-based; conditions: read-out: Inhibition Zone Diameter
[7] = system: Escherichia coli, Chlortetracycline-resistant; experiment: microbe, parasite or virus in culture; assay type: cell-based; conditions: read-out: Inhibition Zone Diameter
[8] = system: Escherichia coli, Polymyxin-resistant; experiment: cross-resistance, disc-plate agar diffusion; assay type: cell-based; conditions: read-out: Inhibition Zone Diameter
[9] = system: Brucella bronchiseptica; experiment: microbe, parasite or virus in culture; assay type: cell-based; conditions: Bordetella bronchiseptica, read-out: Inhibition Zone Diameter
[10] = system: Alcaligenes faecalis; experiment: disc-plate agar diffusion, antibacterial spectrum; assay type: cell-based; conditions: 192 μg/ml, 37 °C, 7 mm = no zone, read-out: Inhibition Zone Diameter
[11] = system: Escherichia coli, Viomycin-resistant; experiment: cross-resistance, disc-plate agar diffusion; assay type: cell-based; conditions: read-out: Inhibition Zone Diameter
[12] = system: Pseudomonas aeruginosa; experiment: disc-plate agar diffusion, antibacterial spectrum; assay type: cell-based; conditions: 192 μg/ml, 25 °C, 7 mm = no zone, read-out: Inhibition Zone Diameter
[13] = system: Serratia marcescens; experiment: disc-plate agar diffusion, antibacterial spectrum; assay type: cell-based; conditions: 192 μg/ml, 25 °C, 7 mm = no zone, read-out: Inhibition Zone Diameter
[14] = system: Escherichia coli, Neomycin-resistant; experiment: cross-resistance, disc-plate agar diffusion; assay type: cell-based; conditions: read-out: Inhibition Zone Diameter
[15] = system: Streptococcus faecalis; experiment: disc-plate agar diffusion, antibacterial spectrum; assay type: cell-based; conditions: Enterococcus faecalis; 192 μg/ml; 37 °C; 7 mm = no zone; read-out: Inhibition Zone Diameter
[16] = system: Staphylococcus aureus; experiment: disc-plate agar diffusion, antibacterial spectrum; assay type: cell-based; conditions: 192 μg/ml, 25 °C, 7 mm = no zone, read-out: Inhibition Zone Diameter
[17] = system: Escherichia coli, Grisein-resistant; experiment: cross-resistance, disc-plate agar diffusion; assay type: cell-based; conditions: read-out: Inhibition Zone Diameter
[18] = system: Escherichia coli W-MB-60; experiment: special effects spectrum, disc-plate agar diffusion; assay type: cell-based; conditions: WMB60, 192 μg/ml, read-out: Inhibition Zone Diameter
[19] = relative biopotency of blocked intermediate; conditions: starting material: disodium salt of 842A
[20] = system: gram-negative and gram-positive infections; experiment: in vivo protection, summary statements; set-up: species or system mice; conditions: for protection against infection, oral: given orally; for in vivo activity / protection spectrum: mouse
Description: (§1) Methods: The method employed in this characterization is as follows: Female white Swiss mice, average weight 20-23 grams, were infected intraperitoneally with 3-20 times the number of organisms calculated to be lethal for 50% of the infected control animals (3-20 LD50 doses). At the time of infection and again 6 hours later, therapy was given by the designated route. Controls of the virulence of the culture and the toxicity of the antibiotic for uninfected mice were included in the tests. Seven days after infection the test was considered complete and the amount of the antibiotic (I) that would be required to protect 50% of the infected and treated animals was calculated by the method of Knudsen and Curtis; J. Amer. Stat. Assoc. Vol. 42: page 282 (1947).
The method employed in these studies is the same as described above with regard to the in vivo characterization of 810A.

[21] = system: Alcaligenes viscosus MB-12; experiment: bacterial inactivation by washed bacterial cells; conditions: 4 hour; assayed on B. subtilis (MB-964); start 4 mg/ml
[22] = system: Proteus mirabilis 241; experiment: bacterial inactivation; conditions: washed bacterial cells, 4 h
Description: (§2) These cultures are: Escherichia coli 236, Proteus morganii 251, Proteus morganii 356 and Proteus mirabilis 241. […] In conducting the assay, individual mixtures of the organisms and one of the antibiotics were sampled after four hours incubation and assayed for residual antibiotic activity. The procedure is the same assay method as described above against Alcaligenes faecalis MB-9 and A. viscosus MB-12.

[23] = system: Proteus morganii 251; experiment: bacterial inactivation; conditions: washed bacterial cells, 4 h
Description: as §2

[24] = system: Proteus morganii 356; experiment: bacterial inactivation; conditions: washed bacterial cells, 4 h
Description: as §2

[25] = system: Escherichia coli 236; experiment: bacterial inactivation; conditions: 4 hours; assayed on B. subtilis (MB-964)
Description: as §2

[26] = blood appearance and urinary excretion; assay type: in vivo, mice; conditions: for appearance in blood / excretion: in vivo
[27] = system: bacteria; experiment: bactericidal action and development of resistance
[28] = system: gram-negative bacteria; experiment: in vitro growth inhibition, summary; assay type: cell-based
[29] = system: gram-positive bacteria; experiment: in vitro growth inhibition, summary; assay type: cell-based; conditions: S. aureus, Sarcina lutea, B. subtilis
[30] = system: Alcaligenes faecalis MB-9; experiment: bacterial inactivation by washed bacterial cells; conditions: 4 hour; assayed on B. subtilis (MB-964); start 4 mg/ml
[31] = system: cephalosporinases and penicillinase; experiment: resistance to enzymatic degradation / bacterial inactivation, summary statements
[32] = isoelectric point and pH stability; assay type: physicochemical; conditions: for stability: pH 1.5
[33] = system: Pseudomonas stutzeri MB-1231; experiment: disc zone bioassay of derivatives; assay type: cell-based; conditions: Stutzerimonas stutzeri, MB1231, 100γ/ml; read-out: disc zone size
Text: (§3) Bioassay: the disc zone sizes in the following table are expressed in mm. for 100γ/ml of antibiotic.
Bioassay: the disc zone sizes in the following table are expressed in mm. for equal concentrations of antibiotic.
(§4) Bioassay: The disc zone sizes in the following table are expressed in mm. for equal concentrations of antibiotic.

[34] = system: Vibrio percolans MB-1272; experiment: disc-plate bioassay using Vibrio percolans; conditions: Comamonas terrigena, MB1272, read-out: disc zone size, 5γ/ml
[35] = system: Escherichia coli W-MB-60; experiment: disc zone bioassay of derivatives; assay type: cell-based; conditions: WMB60, 100γ/ml, read-out: disc zone size
Text: as §3, §4

[36] = system: several strains of bacteria; experiment: bioactivity, summary; assay type: cell-based
[37] = toxicity in uninfected mice; conditions: mouse, in vivo
Description: as §1

Compound: CO[C@@]1(NC(=O)CCC[C@@H](N)C(=O)O)C(=O)N2C(C(=O)O)=C(COC(N)=O)CS[C@@H]21 [Sodium Salt]
- zone of inhibition at 192 µg/mL [1]: 9 mm
- zone of inhibition at 192 µg/mL [2]: 17 mm
- zone of inhibition at 192 µg/mL [3]: 10 mm
- zone of inhibition at 192 µg/mL [4]: 38 mm
- zone of inhibition at 192 µg/mL [5]: 16 mm
- zone of inhibition at 192 µg/mL [6]: 16 mm
- zone of inhibition at 192 µg/mL [7]: 23 mm
- zone of inhibition at 192 µg/mL [8]: 7 mm
- zone of inhibition at 192 µg/mL [9]: 26 mm
- zone of inhibition at 192 µg/mL [10]: 7 mm
- zone of inhibition at 192 µg/mL [11]: 30 mm
- zone of inhibition at 192 µg/mL [12]: 7 mm
- zone of inhibition at 192 µg/mL [13]: 7 mm
- zone of inhibition at 192 µg/mL [14]: 17 mm
- zone of inhibition at 192 µg/mL [15]: 7 mm
- zone of inhibition at 192 µg/mL [16]: 7 mm
- zone of inhibition at 192 µg/mL [17]: 16 mm
- zone of inhibition at 192 µg/mL ([18]; 0.1 M phosphate buffer pH 5, 25 °C): 15 mm
- zone of inhibition at 192 µg/mL ([18]; 0.1 M phosphate buffer pH 7, 25 °C): 25 mm

Compound: CO[C@@]1(NC(=O)CCC[C@@H](NC(=O)OC(C)(C)C)C(=O)O)C(=O)N2C(C(=O)O)=C(COC(N)=O)CS[C@@H]21 [7β-(D-5-N-tertiary-butoxycarbonylamino-5-carboxyvaleramido)-3-(carbamoyloxymethyl)-7-methoxy-3-cephem-4-carboxylic acid]
- biopotency relative to starting material [19]: one-tenth the biopotency of the starting material

Compound: CO[C@@]1(NC(=O)CCC[C@@H](N)C(=O)O)C(=O)N2C(C(=O)O)=C(COC(N)=O)CS[C@@H]21 [Example 842A]
- protection against infection, oral [20]: protects against infections due to Paracolobactrum arizonae 3270, Proteus vulgaris 1810, and Salmonella schottmuelleri 3010
- in vivo activity / protection spectrum ([20]; listed as Antibiotic 842A): protects against infection with three species of Proteus, two of Salmonella, one strain of Escherichia coli, two of Klebsiella and also against Paracolobactrum arizonae, Aerobacter aerogenes, Pasteurella multocida and Diplococcus pneumoniae 2400; also recorded: effectiveness against the following gram-negative bacteria: Escherichia coli, Proteus vulgaris, Proteus mirabilis, Proteus morganii, Salmonella schottmuelleri, Klebsiella pneumoniae AD, Klebsiella pneumoniae B, and Paracolobactrum arizonae
- Percent Inactivation After Incubation With Washed Bacterial Cells [21]: 54.4%
- percent inactivation [22]: 5%
- percent inactivation [23]: 80%
- percent inactivation [24]: 69%
- percent inactivation [25]: 38%
- appearance in blood / excretion ([26]; mouse): rapidly excreted in the urine
- appearance in blood / excretion ([26]; mouse, listed as Antibiotic 842A): appears rapidly in the blood
- dose excreted at 4 h ([26]; mouse, urine, sc, within four hours after administration, read-out: eliminated/recovered in the urine): ~79%
- eliminated/recovered in the urine ([26]; within four hours after administration, 240 min, listed as Antibiotic 842A, 240 min): approximately 80%
- bactericidal action [27]: bactericidal
- development of resistance [27]: resistance to it develops slowly
- activity against Salmonella [28]: exhibits activity against Salmonella schottmuelleri 3010, S. gallinarum and S. typhosa
- growth inhibition ([28]; in vitro, E. coli, P. vulgaris, A. faecalis, B. bronchiseptica, S. gallinarum, V. percolans, X. vesicatoria): inhibits the growth of the following gram-negative bacteria
- growth inhibition [29]: inhibits the growth of the following gram-positive bacteria
- Percent Inactivation After Incubation With Washed Bacterial Cells [30]: 0%
- resistance to enzymatic degradation / inactivation ([31]; listed as Antibiotic 842A): greater resistance to cephalosporinases; also recorded: more resistant to enzymatic degradation than cephalosporin C; also recorded: more stable than the latter against certain microorganisms; also recorded: more resistant than cephalosporin C to inactivation by A. faecalis, A. viscosus, Escherichia coli 236, Proteus morganii 251, Proteus morganii 236 and Proteus mirabilis 241
- apparent isoelectric point ([32]; amphoteric compound): ~3.5 pH
- stability [32]: stable
- stability ([32]; listed as Antibiotic 842A): relatively stable

Compound: CO[C@@]1(NC(=O)CCC[C@@H](N)C(=O)O)C(=O)N2C(C(=O)O)=C(CN=[N+]=[N-])CS[C@@H]21 [7β-(D-5-amino-5-carboxyvaleramido)-3-(azidomethyl)-7-methoxy-3-cephem-4-carboxylic acid]
- zone of inhibition at 100 µg/mL [33]: 20 mm
- zone of inhibition at 5 µg/mL [34]: 16 mm
- zone of inhibition at 100 µg/mL [35]: 21 mm
- bioactivity [36]: possessed bioactivity against several strains of bacteria

Compound: COC(=Cc1ccc(OS(=O)(=O)O)cc1)C(=O)OCC1=C(C(=O)O)N2C(=O)[C@](NC(=O)CCC[C@@H](N)C(=O)O)(OC)[C@H]2SC1 [Ic, 7β-(D-5-amino-5-carboxyvaleramido)-3-(α-methoxy-p-sulfooxycinnamoyloxymethyl)-7-methoxy-3-cephem-4-carboxylic acid]
- protection against infection, oral [20]: protects against infections due to Proteus vulgaris
- in vivo activity / protection spectrum [20]: when administered intraperitoneally it is effective against a variety of gram-negative and gram-positive infections
- bactericidal action [27]: bactericidal
- resistance to enzymatic degradation / inactivation ([31]; listed as 7β-(D-5-amino-5-carboxyvaleramido)-3-(α-methyoxy-p-sulfooxycinnamoyloxymethyl)-7): greater resistance to cephalosporinases than cephalothin; also recorded: more resistant to enzymatic degradation than cephalosporin C
- toxicity [37]: low order of toxicity in mice
